Results from patent publication US9320276B2, “N-hetarylmethyl pyrazolylcarboxamides” (BAYER INTELLECTUAL PROPERTY GMBH, priority 2010, dated 2016).

Columns and labels:
Alternaria solani = assay: in vivo preventive test on Alternaria solani (tomato); details: 500 ppm of active ingredient, evaluated 7 days after inoculation
Description: Solvent: 49 parts by weight of N,N-dimethylformamide Emulsifier: 1 part by weight of Alkylarylpolyglycolether To produce a suitable preparation of active compound, 1 part by weight of active compound is mixed with the stated amounts of solvent and emulsifier, and the concentrate is diluted with water to the desired concentration. To test for preventive activity, young plants are sprayed with the preparation of active compound at the stated rate of application. One day after this treatment, the plants are inoculated with an aqueous spore suspension of Alternaria solani. The plants remain for one day in an incubation cabinet at approximately 22° C. and a relative atmospheric humidity of 100%. Then the plants are placed in an incubation cabinet at approximately 20° C. and a relative atmospheric humidity of 96%. The test is evaluated 7 days after the inoculation. 0% means an efficacy which corresponds to that of the untreated control while an efficacy of 100% means that no disease is observed.

[1] = logP by HPLC on reversed-phase column (EEC Directive 79/831 Annex V.A8); assay type: physicochemical; details: 40° C., 0.1% aqueous formic acid and acetonitrile, linear gradient 10% to 90% acetonitrile
Description: In table 1, the logP values were determined in accordance with EEC Directive 79/831 Annex V.A8 by HPLC (High Performance Liquid Chromatography) on a reversed-phase column (C 18), using the method described below: Temperature: 40° C.; Mobile phases: 0.1% aqueous formic acid and acetonitrile; linear gradient from 10% acetonitrile to 90% acetonitrile. Calibration was carried out using unbranched alkan-2-ones (comprising 3 to 16 carbon atoms) with known logP values (determination of the logP values by the retention times using linear interpolation between two successive alkanones). lambda-max-values were determined using UV-spectra from 200 nm to 400 nm and the peak values of the chromatographic signals.

Pyrenophora teres = assay: in vivo preventive test on Pyrenophora teres (barley); details: 500 ppm of active ingredient, evaluated 7-9 days after inoculation
Description: Solvent: 49 parts by weight of N,N-dimethylformamide Emulsifier: 1 part by weight of alkylaryl polyglycol ether To produce a suitable preparation of active compound, 1 part by weight of active compound is mixed with the stated amounts of solvent and emulsifier, and the concentrate is diluted with water to the desired concentration. To test for preventive activity, young plants are sprayed with the preparation of active compound at the stated rate of application. One day after this treatment, the plants are inoculated with an aqueous spore suspension of Pyrenophora teres. The plants remain for 48 hours in an incubation cabinet at 22° C. and a relative atmospheric humidity of 100%. Then the plants are placed in a greenhouse at a temperature of approximately 20° C. and a relative atmospheric humidity of approximately 80%. The test is evaluated 7-9 days after the inoculation. 0% means an efficacy which corresponds to that of the untreated control while an efficacy of 100% means that no disease is observed.

[2] = HPLC on reversed-phase column (C 18)

| logP [1, 2] | logP ([1]; HPLC, reversed-phase column (C 18)) | Compound | Efficacy (Alternaria solani) [%] | Efficacy (Pyrenophora teres) [%] |
| --- | --- | --- | --- | --- |
| 2.40 | – | CN(Cc1cnn(-c2ccccc2)c1)C(=O)c1c(C(F)F)nn(C)c1Cl [Example 108] | 90 | – |
| 4.13 | – | Cn1nc(C(F)F)c(C(=O)N(Cc2cc3ccccc3n2-c2ccccc2)C2CC2)c1Cl [Example 156] | – | 90 |
| 2.92 | – | Cn1nc(C(F)F)c(C(=O)N(Cc2cc(Cl)nc3ccccc23)C2CC2)c1F [Example 138] | – | 100 |
| 3.57 | – | Cn1nc(C(F)F)c(C(=O)N(Cc2ccnc3cc(Cl)cc(Cl)c23)C2CC2)c1Cl [Example 162] | – | 94 |
| 3.04 | – | Cn1nc(C(F)F)c(C(=O)N(Cc2cc(-c3ccccc3)no2)C2CC2)c1Cl [Example 112] | – | 95 |
| 3.74 | – | Cc1c(CN(C(=O)c2c(C(F)F)nn(C)c2Cl)C2CC2)sc2ccccc12 [Example 123] | – | 90 |
| 2.73 | – | Cn1nc(C(F)F)c(C(=O)NC2CCCc3sccc32)c1F (centres unmarked) [Example 104] | 94 | – |
| – | 3.64 | Cn1nc(C(F)F)c(C(=O)N(Cc2cc(-c3cc(F)c(F)c(F)c3)no2)C2CC2)c1Cl [Example 166] | – | 90 |
| 3.94 | – | Cc1cc(CN(C(=O)c2c(C(F)F)nn(C)c2Cl)C2CC2)c(C)n1-c1ccccc1 [Example 146] | – | – |
| 2.44 | – | Cc1onc(-c2ccccc2)c1CN(C)C(=O)c1c(C(F)F)nn(C)c1F [Example 130] | – | – |
| 2.70 | – | CN(Cc1cscc1Br)C(=O)c1c(C(F)F)nn(C)c1Cl [Example 134] | – | – |
| 3.72 | – | Cn1nc(C(F)F)c(C(=O)N(Cc2cc(C(F)(F)F)nc3ccccc23)C2CC2)c1Cl [Example 160] | – | 90 |
| 3.58 | – | Cn1nc(C(F)F)c(C(=O)N(Cc2cc(C(F)(F)F)nc3ccccc23)C2CC2)c1F [Example 159] | – | 100 |
| 3.83 | – | Cn1nc(C(F)F)c(C(=O)N(Cc2csc3ccc(Cl)cc23)C2CC2)c1Cl [Example 144] | – | 100 |
| 3.31 | – | Cn1nc(C(F)F)c(C(=O)N(Cc2cc(CC(C)(C)C)no2)C2CC2)c1Cl [Example 107] | – | 80 |
| 2.59 | – | Cc1onc(-c2ccccc2)c1CN(C)C(=O)c1c(C(F)F)nn(C)c1Cl [Example 129] | – | – |
| 3.59 | – | CSc1ncc(C(C(C)C)N(C)C(=O)c2c(C(F)F)nn(C)c2Cl)c(C(F)(F)F)n1 (centres unmarked) [Example 158] | – | – |
| 3.59 | – | Cn1nc(C(F)F)c(C(=O)N(Cc2cc(-c3ccc(Cl)cc3)no2)C2CC2)c1Cl [Example 154] | – | 100 |
| 3.11 | – | CN(Cc1cc(-c2cc(F)c(F)c(F)c2)no1)C(=O)c1c(C(F)F)nn(C)c1F [Example 164] | – | 100 |
| 3.09 | – | Cn1nc(C(F)F)c(C(=O)N(Cc2cc(Cl)nc3ccccc23)C2CC2)c1Cl [Example 139] | – | 90 |
| 2.51 | – | CN(Cc1cc(-c2ccccc2)no1)C(=O)c1c(C(F)F)nn(C)c1F [Example 110] | – | 100 |
| 2.90 | – | Cc1nc(-c2ccccc2)sc1CN(C)C(=O)c1c(C(F)F)nn(C)c1Cl [Example 148] | – | – |
| 3.39 | – | CC(C)N(Cc1cnn(-c2ccc(Cl)cc2)c1)C(=O)c1c(C(F)F)nn(C)c1Cl [Example 151] | – | 75 |

More lines, now with the values behind:

| Compound | logP [1, 2] | logP ([1]; HPLC, reversed-phase column (C 18)) | Efficacy (Alternaria solani) [%] | Efficacy (Pyrenophora teres) [%] |
| --- | --- | --- | --- | --- |
| Cc1cc(C(C)N(C(=O)c2c(C(F)F)nn(C)c2F)C2CC2)c(C)o1 (centres unmarked) [Example 35] | 3.21 | – | – | 100 |
| Cc1occc1C1(NC(=O)c2c(C(F)F)nn(C)c2Cl)CCCC1 [Example 23] | 3.11 | – | – | 100 |
| CC(C)Oc1ccc(CN(C)C(=O)c2c(C(F)F)nn(C)c2F)cn1 [Example 102] | 2.45 | – | – | 70 |
| Cc1ccoc1CN(C)C(=O)c1c(C(F)F)nn(C)c1Cl [Example 21] | 2.32 | – | – | 80 |
| C=CCN(Cc1csc(C)n1)C(=O)c1c(C(F)F)nn(C)c1Cl [Example 43] | 2.20 | – | – | – |
| Cc1cc(C(C)N(C(=O)c2c(C(F)F)nn(C)c2Cl)C2CC2)c(C)o1 (centres unmarked) [Example 36] | 3.37 | – | – | – |
| CC(c1cccc2ccsc12)N(C(=O)c1c(C(F)F)nn(C)c1Cl)C1CC1 (centres unmarked) [Example 92] | 3.61 | – | – | 100 |
| CC(C1CC1)N(Cc1ccco1)C(=O)c1c(C(F)F)nn(C)c1F (centres unmarked) [Example 3] | 2.82 | – | – | – |
| CCN(Cc1c(C)nn(CC)c1C)C(=O)c1c(C(F)F)nn(C)c1F [Example 79] | 1.72 | – | – | – |
| Cc1ccsc1CN(C(=O)c1c(C(F)F)nn(C)c1Cl)C1CCCC1 [Example 37] | 3.61 | – | 80 | – |
| Cn1nc(C(F)F)c(C(=O)N(Cc2ccco2)C2CCCCC2)c1F [Example 8] | 3.21 | – | – | – |
| CN(Cc1ccc(Cl)nc1)C(=O)c1c(C(F)F)nn(C)c1Cl [Example 62] | 1.98 | – | – | – |
| CCN(Cc1ccc(Cl)nc1)C(=O)c1c(C(F)F)nn(C)c1F [Example 61] | 2.10 | – | – | – |
| CN(Cc1ccnc(Cl)c1)C(=O)c1c(C(F)F)nn(C)c1F [Example 54] | 1.76 | – | – | – |
| Cn1nc(C(F)F)c(C(=O)N(Cc2nc3ccccc3s2)C2CC2)c1Cl [Example 97] | 2.80 | – | – | – |
| Cc1ccsc1CN(C)C(=O)c1c(C(F)F)nn(C)c1F [Example 42] | 2.44 | – | 70 | – |
| Cn1nc(C(F)F)c(C(=O)N(Cc2cccnc2)C2CCCCCC2)c1Cl [Example 15] | 1.76 | – | – | 75 |
| COCCN(Cc1ccc(Cl)nc1)C(=O)c1c(C(F)F)nn(C)c1Cl [Example 58] | 2.15 | – | – | – |
| CN(Cc1cncc(Cl)c1)C(=O)c1c(C(F)F)nn(C)c1F [Example 56] | 1.76 | – | – | – |
| CC(C)N(Cc1ccc(Cl)nc1)C(=O)c1c(C(F)F)nn(C)c1F [Example 65] | 2.33 | – | – | – |
| CCN(Cc1cn(CC)nc1C)C(=O)c1c(C(F)F)nn(C)c1Cl [Example 46] | 1.79 | – | – | – |

| Compound | logP [1, 2] | logP ([1]; HPLC, reversed-phase column (C 18)) | Efficacy (Alternaria solani) [%] | Efficacy (Pyrenophora teres) [%] |
| --- | --- | --- | --- | --- |
| Cn1nc(C(F)F)c(C(=O)N(Cc2cc3ccccc3o2)C2CC2)c1Cl [Example 72] | 3.21 | – | – | 90 |
| C=CCN(Cc1csc(C)n1)C(=O)c1c(C(F)F)nn(C)c1F [Example 44] | 2.07 | – | – | – |
| Cn1nc(C(F)F)c(C(=O)N(Cc2cccnc2)C2CCCCCC2)c1F [Example 16] | 1.66 | – | – | – |
| Cn1nc(C(F)F)c(C(=O)NC2(c3cc4ccccc4o3)CCCC2)c1Cl [Example 74] | 3.70 | – | – | – |
| CN(Cc1cccnc1Cl)C(=O)c1c(C(F)F)nn(C)c1F [Example 52] | 1.72 | – | – | – |
| Cn1nc(C(F)F)c(C(=O)NCc2ccco2)c1Cl [Example 9] | 1.86 | – | – | – |
| Cc1ccsc1CN(C)C(=O)c1c(C(F)F)nn(C)c1Cl [Example 41] | 2.58 | – | – | – |
| Cn1nc(C(F)F)c(C(=O)N(Cc2ccc(Cl)nc2)C2CCCC2)c1Cl [Example 68] | 2.94 | – | – | – |
| Cn1nc(C(F)F)c(C(=O)N(Cc2cccs2)C2CC2)c1Cl [Example 31] | 2.73 | – | – | 100 |
| CCCN(Cc1cccs1)C(=O)c1c(C(F)F)nn(C)c1Cl [Example 29] | 2.90 | – | – | – |
| COCCN(Cc1ccc(Cl)nc1)C(=O)c1c(C(F)F)nn(C)c1F [Example 59] | 2.02 | – | – | – |
| Cn1nc(C(F)F)c(C(=O)NCc2csc3ccccc23)c1Cl [Example 87] | 2.90 | – | – | – |
| CCN(Cc1cnc(Cl)s1)C(=O)c1c(C(F)F)nn(C)c1F [Example 76] | 2.21 | – | – | – |
| Cn1nc(C(F)F)c(C(=O)N(Cc2ccc(Cl)nc2)C2CCCC2)c1F [Example 57] | 2.80 | – | – | – |
| Cn1nc(C(F)F)c(C(=O)NCc2ccco2)c1F [Example 10] | 1.66 | – | – | – |
| CCCN(Cc1cccs1)C(=O)c1c(C(F)F)nn(C)c1F [Example 30] | 2.77 | – | – | – |
| CC(C1CC1)N(Cc1ccco1)C(=O)c1c(C(F)F)nn(C)c1Cl (centres unmarked) [Example 2] | 2.98 | – | – | – |
| CCN(Cc1cn(CC)nc1C)C(=O)c1c(C(F)F)nn(C)c1F [Example 45] | 1.69 | – | – | – |
| CCN(Cc1cnc(Cl)s1)C(=O)c1c(C(F)F)nn(C)c1Cl [Example 77] | 2.35 | – | – | – |
| Cn1nc(C(F)F)c(C(=O)NCc2cc3ccccc3s2)c1F [Example 84] | 2.75 | – | – | – |
| CCN(Cc1c(C)nn(CC)c1C)C(=O)c1c(C(F)F)nn(C)c1Cl [Example 78] | 1.82 | – | – | – |
